Measurements from patent publication US6921757B2, “Organic compounds” (Novartis AG, priority 2000, dated 2005).
Where two headings read alike, the source gives them in different places.

Assays:
[1] = tested on: lung eosinophilia; test: Inhibition of lung eosinophilia in ovalbumin-sensitised Brown Norway rats; assay type: in vivo; settings: 3 mg/kg intratracheally as dry powder lactose blend, 24 h before ovalbumin aerosol; lung lavage 24 h after challenge
Description: In vivo anti-inflammatory activity may be assessed by inhibition of lung eosinophilia in rats using a modification of the method of Szarka et al op cit. Male Brown Norway rats (approximately 200 g) are sensitised on day 1 with an intraperitonial injection of 0.5 ml of a mixture of ovalbumin (0.02 mg/ml) and aluminium hydroxide (20 mg/ml), followed by Acellulare pertussis adsorbat vaccine (0.2 ml of a 1:4 dilution with 0.9% saline). The procedure is repeated on day 15 and day 21. […] The lungs are removed and after lavage with Hank's solution (balanced salt solution, 100 ml; EDTA 100 mM, 100 ml; HPES 1M, 10 ml, water 1000 ml), eosinophil numbers in the recovered solution are quantified directly using a Corbas Helios 5Diff apparatus (Hoffman-LaRoche).

[2] = tested on: TNF-alpha synthesis and release from the human macrophage cell line U937; test: Inhibition of TNF-alpha synthesis and release from the human macrophage cell line U937; assay type: cell-based
Source text: Accordingly, the invention also provides a compound of formula I for use as a pharmaceutical. […] Methods (1997) 202:49-57; Renzi et al, Am. Rev. Respir. Dis. (1993) 148:932-939; Tsuyuki et al., J. Clin. Invest. (1995) 96:2924-2931; and Cemadas et al (1999) Am. J. Respir. Cell Mol. Biol. 20:1-8.

[3] = Systemic side effects: reduction in thymus weight on chronic administration to rats; assay type: in vivo, Sprague-Dawley rats
Description: Systemic side effects may be assessed by reduction in thymus weight on chronic administration to rats. Male Sprague-Dawley rats (approximately 250 g) are treated once daily for 4 days with the test compound administered at a dose of 1 mg/kg either orally as a hydroxypropyl cellulose suspension or intratracheally under isoflurane anaesthesia as a dry powder lactose blend. On day 5 the rats are sacrificed, autopsy is performed and the weight of the thymus is determined.

[4] = Homo sapiens, U-937, read-out: IC50 inhibition of TNF-alpha synthesis and release

Row | Structure (SMILES) | reduction in eosinophil count compared to vehicle control [1] [%] | IC50 [2, 4] [nM] | reduction in thymus weight compared to vehicle control when dosed intratracheally ([3]; 1 mg/kg intratracheally once daily for 4 days, dry powder lactose blend) [%] | reduction in thymus weight compared to vehicle control when dosed orally ([3]; 1 mg/kg orally once daily for 4 days, hydroxypropyl cellulose suspension) [%] | IC50 ([2]; U937 human macrophage cell line, read-out: IC50 inhibition of TNF-alpha synthesis and release) [nM]
1 | COC(=O)[C@@]1(OC(=O)c2sccc2C)[C@H](C)CC2C3C[C@H](F)C4=CC(=O)C=C[C@]4(C)[C@@]3(Cl)[C@@H](O)C[C@@]21C (stereo partly drawn) [Example 26, 3-methylthiophene-2-carboxylic acid (6S,9R,10S,11S,13S,16R,17R)-9-chloro-6-fluoro-11-hydroxy-17-methoxycarbonyl-10,13,16-trimethyl-3-oxo-6,7,8,9,10,11,12,13,14,15,16,17-dodecahydro-3H-cyclopenta[a]phenanthren-17-yl ester] | 63 | 0.024 |  |  | 
2 | COC(=O)[C@@]1(OC(=O)c2cnc(C)cn2)[C@H](C)CC2C3C[C@H](F)C4=CC(=O)C=C[C@]4(C)[C@@]3(Cl)[C@@H](O)C[C@@]21C (some centres unmarked) [Example 99] | 48 |  | 70 | 0 | 0.106
3 | COC(=O)[C@@]1(OC(=O)C2CC2)[C@@H](C)CC2C3C[C@H](F)C4=CC(=O)C=C[C@]4(C)[C@@]3(Cl)[C@@H](O)C[C@@]21C (stereo partly drawn) [Example 34, (6S,9R,10S,11S,13S,16S,17R)-9-chloro-17-cyclopropanecarbonyloxy-6-fluoro-11-hydroxy-10,13,16-trimethyl-3-oxo-6,7,8,9,10,11,12,13,14,15,16,17-dodecahydro-3H-cyclopenta[a]phenanthrene-17-carboxylic acid methyl ester] | 90 | 0.1 |  |  | 
